Measured values reported in ChEMBL document CHEMBL1156204, “Spectacular modification of Gambogic acid on microwave irradiation in methanol: isolation and structure identification of two products with potent anti-tumor activity” (Bioorg Med Chem Lett, 2010).
Activity calls are given as the source filed them. The calls are words filed in the database; no cut-off is given here.

Assays:
HepG2 [1] = test: Cytotoxicity against human HepG2 cells after 48 hrs by MTT assay; type: functional, cell-based; settings: HepG2, 48 h
[2] = Cytotoxicity against human BGC803 cells after 48 hrs by MTT assay; type: functional, cell-based; settings: BGC803, 48 h
SGC-7901 = test: Cytotoxicity against human SGC7901 cells after 48 hrs by MTT assay; type: functional, cell-based; settings: SGC-7901, 48 h
MCF7 = test: Cytotoxicity against human MCF7 cells after 48 hrs by MTT assay; type: functional, cell-based; settings: MCF7, 48 h
HepG2 [3] = test: Effect on human HepG2 cell morphology assessed as cell elongation at 1.25 to 5 uM after 24 hrs by inverted-light microscopy; type: functional, cell-based
HepG2 [4] = test: Effect on human HepG2 cell morphology assessed as induction of membrane blebbing at 1.25 to 5 uM after 24 hrs by inverted-light microscopy; type: functional, cell-based
HepG2 [5] = test: Effect on human HepG2 cell morphology assessed as induction of cell shrinkage at 1.25 to 5 uM after 24 hrs by inverted-light microscopy; type: functional, cell-based
HepG2 [6] = test: Effect on human HepG2 cell morphology assessed as formation of round cells at 1.25 to 5 uM after 24 hrs by inverted-light microscopy; type: functional, cell-based
HepG2 [7] = test: Induction of necrosis in human HepG2 cells at 1.25 to 5 uM after 24 hrs by inverted-light microscopy; type: functional, cell-based
HepG2 [8] = test: Effect on human HepG2 cell morphology assessed as cell elongation at 0.5 to 2 uM after 24 hrs by inverted-light microscopy; type: functional, cell-based
HepG2 [9] = test: Effect on human HepG2 cell morphology assessed as induction of membrane blebbing at 0.5 to 2 uM after 24 hrs by inverted-light microscopy; type: functional, cell-based
HepG2 [10] = test: Effect on human HepG2 cell morphology assessed as induction of cell shrinkage at 0.5 to 2 uM after 24 hrs by inverted-light microscopy; type: functional, cell-based
HepG2 [11] = test: Effect on human HepG2 cell morphology assessed as formation of round cells at 0.5 to 2 uM after 24 hrs by inverted-light microscopy; type: functional, cell-based
HepG2 [12] = test: Induction of necrosis in human HepG2 cells at 0.5 to 2 uM after 24 hrs by inverted-light microscopy; type: functional, cell-based
HepG2 [13] = test: Induction of apoptosis in human HepG2 cells assessed as nuclear condensation at 1.25 to 5 uM after 24 hrs by DAPI staining-based fluorescence microscopy; type: functional, cell-based
HepG2 [14] = test: Induction of apoptosis in human HepG2 cells assessed as nuclear condensation at 0.5 to 2 uM after 24 hrs by DAPI staining-based fluorescence microscopy; type: functional, cell-based
HepG2 [15] = test: Induction of apoptosis in human HepG2 cells assessed as appearance of apoptotic bodies at 1.25 to 5 uM after 24 hrs by fluorescence microscopy; type: functional, cell-based
HepG2 [16] = test: Induction of apoptosis in human HepG2 cells assessed as appearance of apoptotic bodies at 0.5 to 2 uM after 24 hrs by fluorescence microscopy; type: functional, cell-based
HepG2 [17] = test: Induction of apoptosis in human HepG2 cells assessed as dead cells at 0.5 uM after 24 hrs using annexin-V and propidium iodide staining by flow cytometry; type: functional
HepG2 [18] = test: Induction of apoptosis in human HepG2 cells assessed as late apoptotic cells at 0.5 uM after 24 hrs using annexin-V and propidium iodide staining by flow cytometry; type: functional
HepG2 [19] = test: Induction of apoptosis in human HepG2 cells assessed as early apoptotic cells at 0.5 uM after 24 hrs using annexin-V and propidium iodide staining by flow cytometry; type: functional
HepG2 [20] = test: Induction of apoptosis in human HepG2 cells assessed as viable cells at 0.5 uM after 24 hrs using annexin-V and propidium iodide staining by flow cytometry; type: functional; settings: HepG2, 24 h, read-out: Activity
HepG2 [21] = test: Induction of apoptosis in human HepG2 cells assessed as dead cells at 1 uM after 24 hrs using annexin-V and propidium iodide staining by flow cytometry; type: functional
HepG2 [22] = test: Induction of apoptosis in human HepG2 cells assessed as late apoptotic cells at 1 uM after 24 hrs using annexin-V and propidium iodide staining by flow cytometry; type: functional
HepG2 [23] = test: Induction of apoptosis in human HepG2 cells assessed as early apoptotic cells at 1 uM after 24 hrs using annexin-V and propidium iodide staining by flow cytometry; type: functional
HepG2 [24] = test: Induction of apoptosis in human HepG2 cells assessed as viable cells at 1 uM after 24 hrs using annexin-V and propidium iodide staining by flow cytometry; type: functional; settings: HepG2, 24 h, read-out: Activity
HepG2 [25] = test: Induction of apoptosis in human HepG2 cells assessed as dead cells at 2 uM after 24 hrs using annexin-V and propidium iodide staining by flow cytometry; type: functional
HepG2 [26] = test: Induction of apoptosis in human HepG2 cells assessed as late apoptotic cells at 2 uM after 24 hrs using annexin-V and propidium iodide staining by flow cytometry; type: functional
HepG2 [27] = test: Induction of apoptosis in human HepG2 cells assessed as early apoptotic cells at 2 uM after 24 hrs using annexin-V and propidium iodide staining by flow cytometry; type: functional
HepG2 [28] = test: Induction of apoptosis in human HepG2 cells assessed as viable cells at 2 uM after 24 hrs using annexin-V and propidium iodide staining by flow cytometry; type: functional; settings: HepG2, 24 h, read-out: Activity
HepG2 [29] = test: Induction of apoptosis in human HepG2 cells assessed as increase in bax expression at 0.5 to 2 uM after 24 hrs; type: functional, cell-based
HepG2 [30] = test: Induction of apoptosis in human HepG2 cells assessed as decrease in procaspase-3 expression at 0.5 to 2 uM after 24 hrs; type: functional, cell-based
HepG2 [31] = test: Induction of apoptosis in human HepG2 cells assessed as increase in active caspase-3 expression at 0.5 to 2 uM after 24 hrs; type: functional, cell-based
HepG2 [32] = test: Induction of apoptosis in human HepG2 cells assessed as dead cells at 1.25 uM after 24 hrs using annexin-V and propidium iodide staining by flow cytometry; type: functional
HepG2 [33] = test: Induction of apoptosis in human HepG2 cells assessed as late apoptotic cells at 1.25 uM after 24 hrs using annexin-V and propidium iodide staining by flow cytometry; type: functional
HepG2 [34] = test: Induction of apoptosis in human HepG2 cells assessed as early apoptotic cells at 1.25 uM after 24 hrs using annexin-V and propidium iodide staining by flow cytometry; type: functional
HepG2 [35] = test: Induction of apoptosis in human HepG2 cells assessed as viable cells at 1.25 uM after 24 hrs using annexin-V and propidium iodide staining by flow cytometry; type: functional; settings: HepG2, 24 h, read-out: Activity
HepG2 [36] = test: Induction of apoptosis in human HepG2 cells assessed as dead cells at 2.5 uM after 24 hrs using annexin-V and propidium iodide staining by flow cytometry; type: functional
HepG2 [37] = test: Induction of apoptosis in human HepG2 cells assessed as late apoptotic cells at 2.5 uM after 24 hrs using annexin-V and propidium iodide staining by flow cytometry; type: functional
HepG2 [38] = test: Induction of apoptosis in human HepG2 cells assessed as early apoptotic cells at 2.5 uM after 24 hrs using annexin-V and propidium iodide staining by flow cytometry; type: functional
HepG2 [39] = test: Induction of apoptosis in human HepG2 cells assessed as viable cells at 2.5 uM after 24 hrs using annexin-V and propidium iodide staining by flow cytometry; type: functional; settings: HepG2, 24 h, read-out: Activity
HepG2 [40] = test: Induction of apoptosis in human HepG2 cells assessed as dead cells at 5 uM after 24 hrs using annexin-V and propidium iodide staining by flow cytometry; type: functional
HepG2 [41] = test: Induction of apoptosis in human HepG2 cells assessed as late apoptotic cells at 5 uM after 24 hrs using annexin-V and propidium iodide staining by flow cytometry; type: functional
HepG2 [42] = test: Induction of apoptosis in human HepG2 cells assessed as early apoptotic cells at 5 uM after 24 hrs using annexin-V and propidium iodide staining by flow cytometry; type: functional
HepG2 [43] = test: Induction of apoptosis in human HepG2 cells assessed as viable cells at 5 uM after 24 hrs using annexin-V and propidium iodide staining by flow cytometry; type: functional; settings: HepG2, 24 h, read-out: Activity
HepG2 [44] = test: Induction of apoptosis in human HepG2 cells assessed as decrease in Bcl-2 expression at 1.25 to 5 uM after 24 hrs; type: functional, cell-based
HepG2 [45] = test: Induction of apoptosis in human HepG2 cells assessed as decrease in procaspase-3 expression at 1.25 to 5 uM after 24 hrs; type: functional, cell-based

Row | SMILES | IC50 (HepG2 [1]) [nM] | IC50 [2] [nM] | IC50 (SGC-7901) [nM] | IC50 (MCF7) [nM] | Activity (HepG2 [3]) | Activity (HepG2 [4]) | Activity (HepG2 [5]) | Activity (HepG2 [6]) | Activity (HepG2 [7]) | Activity (HepG2 [8]) | Activity (HepG2 [9]) | Activity (HepG2 [10]) | Activity (HepG2 [11]) | Activity (HepG2 [12]) | Activity (HepG2 [13]) | Activity (HepG2 [14]) | Activity (HepG2 [15]) | Activity (HepG2 [16]) | also measured
1 | COC(=O)/C(C)=C\C[C@@]12OC(C)(C)[C@@H]3C[C@@H](C=C4C(=O)c5c(O)c6c(c(CC=C(C)C)c5O[C@]431)O[C@](C)(CCC=C(C)C)C=C6)C2=O [METHYL GAMBOGATE] | 2530 | 1240 | 790 | 520 | – | – | – | – | – | – | – | – | – | – | – | – | – | – | –
2 | COC(=O)/C(C)=C\C[C@@]12OC(C)(C)[C@@H]3C[C@@H](C=C4C(=O)c5c(O)c(C6C[C@](C)(OC)CCC6=C(C)C)c6c(c5O[C@]431)CCC(C)(C)O6)C2=O (stereo partly drawn) | 1530 | 2010 | 1510 | 1240 | Active | Active | Active | Active | Active | Active | Active | Active | Active | Active | Active | Active | Active | Active | Activity (HepG2 [17]): 0.3%; Activity (HepG2 [18]): 1.3%; Activity (HepG2 [19]): 4.3%; viability at 0.5 µM (HepG2 [20]): 94%; Activity (HepG2 [21]): 0.9%; Activity (HepG2 [22]): 2.5%; Activity (HepG2 [23]): 12.9%; viability at 1 µM (HepG2 [24]): 83.7%; Activity (HepG2 [25]): 3.4%; Activity (HepG2 [26]): 8.1%; Activity (HepG2 [27]): 35%; viability at 2 µM (HepG2 [28]): 53.6%; Activity (HepG2 [29]): Active; Activity (HepG2 [30]): Active; Activity (HepG2 [31]): Active
3 | CC(C)=CCC[C@]1(C)C=Cc2c(O)c3c(c(CC=C(C)C)c2O1)O[C@]12C(=C[C@@H]4C[C@H]1C(C)(C)O[C@@]2(C/C=C(/C)C(=O)O)C4=O)C3=O [GAMBOGIC ACID] | 2400 | 1540 | 1470 | 500 | – | – | – | – | – | – | – | – | – | – | – | – | – | – | –
4 | COC(=O)/C(C)=C\C[C@@]12OC(C)(C)[C@@H]3C[C@@H](C=C4C(=O)c5c(O)c6c(c(CC=C(C)C)c5O[C@]431)O[C@]1(C)CCC(=C(C)C)C6C1)C2=O | 1960 | 1450 | 2150 | 1880 | Active | Active | Active | Active | Active | Active | Active | Active | Active | Active | Active | Active | Active | Active | Activity (HepG2 [32]): 0.4%; Activity (HepG2 [33]): 4%; Activity (HepG2 [34]): 5.7%; viability at 1.25 µM (HepG2 [35]): 89.8%; Activity (HepG2 [36]): 1.4%; Activity (HepG2 [37]): 4.1%; Activity (HepG2 [38]): 13.6%; viability at 2.5 µM (HepG2 [39]): 80.9%; Activity (HepG2 [40]): 1.8%; Activity (HepG2 [41]): 4.4%; Activity (HepG2 [42]): 20.7%; viability at 5 µM (HepG2 [43]): 73.2%; Activity (HepG2 [44]): Active; Activity (HepG2 [45]): Active
